The NIST ThermoML archive (doi:10.1016/j.jct.2012.02.005)
± gives the expanded uncertainty stated by the source.

Assays:
[1] = Crystal; DTA
[2] = Molar enthalpy of transition or fusion; details: Crystal; DSC

- Triple point temperature [1]: 316.96 ± 0.39 K
- Molar enthalpy of transition or fusion [2]: 3.9 ± 0.0932 kcal/mol
Structure (SMILES): c1ccc2nsnc2c1 [2,1,3-benzothiadiazole]
